From PubChem BioAssay AID330 (DTP/NCI, 2004)
Where “and” joins values, the source holds several entries; their conditions need not be identical. Equal values may be shown once. Inconclusive results and toxic doses are left out.

Test system: P388 leukemia ip, CD2F1 mice, survival T/C
Experiment: NCI In Vivo Anticancer Drug Screen. Data for tumor model P388 Leukemia (intraperitoneal) in CD2F1 (CDF1) mice
Conditions: endpoint: median survival time, higher = longer survival
Method in brief: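 Mice carrying the transplanted tumor received test compound or vehicle. Survival was recorded in each group, and the value is the treated-group measurement divided by that of the vehicle-treated control group.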

[1] = dose: 50.0 mg/kg/injection, schedule: Q01DX005 (ip), vehicle: saline with Tween-80
[2] = dose: 100.0 mg/kg/injection, schedule: Q01DX005 (ip), vehicle: saline with Tween-80
[3] = dose: 200.0 mg/kg/injection, schedule: Q01DX005 (ip), vehicle: saline with Tween-80
[4] = dose: 50.0 mg/kg/injection, schedule: Q01DX009 (ip), vehicle: saline with Tween-80
[5] = dose: 100.0 mg/kg/injection, schedule: Q01DX009 (ip), vehicle: saline with Tween-80
[6] = dose: 60.0 mg/kg/injection, schedule: Q01DX005 (ip), vehicle: saline
[7] = dose: 120.0 mg/kg/injection, schedule: Q01DX005 (ip), vehicle: saline
[8] = dose: 240.0 mg/kg/injection, schedule: Q01DX005 (ip), vehicle: saline
[9] = dose: 50.0 mg/kg/injection, schedule: Q01DX005 (ip), vehicle: saline
[10] = dose: 100.0 mg/kg/injection, schedule: Q01DX005 (ip), vehicle: saline
[11] = dose: 60.0 mg/kg/injection, schedule: Q01DX005 (ip), vehicle: saline with Tween-80
[12] = dose: 50.0 mg/kg/injection, schedule: Q01DX005 (ip), vehicle: Klucel (hydroxypropylcellulose) (HPC)
[13] = dose: 100.0 mg/kg/injection, schedule: Q01DX005 (ip), vehicle: Klucel (hydroxypropylcellulose) (HPC)
[14] = dose: 120.0 mg/kg/injection, schedule: Q01DX005 (ip), vehicle: saline with Tween-80
[15] = dose: 240.0 mg/kg/injection, schedule: Q01DX005 (ip), vehicle: saline with Tween-80
[16] = dose: 200.0 mg/kg/injection, schedule: Q01DX009 (ip), vehicle: saline with Tween-80
[17] = dose: 200.0 mg/kg/injection, schedule: Q01DX005 (ip), vehicle: Klucel (hydroxypropylcellulose) (HPC)

In the case of `CCCCNc1cc(-c2c(N)nc(N)nc2CC)ccc1[N+](=O)[O-]`, the T/C [1] is reported as 101 % of control, the T/C [2] is reported as 101 % of control and the T/C [3] is reported as 94 % of control.

For `O=c1[nH]ccc2sccc12`, the T/C [4] was 95 % of control and the T/C [5] was 100 % of control.

`OCC1OC(n2c(Cl)nc3ccccc32)C(O)C1O` (stereo not given) was tested, and the T/C [6] was 100 % of control, the T/C [7] was 103 % of control and the T/C [8] was 98 % of control.

In the case of `CC(=O)C(N)=O`, the T/C [9] is reported as 98 % of control, the T/C [10] is reported as 100 % of control and the T/C (dose: 200.0 mg/kg/injection, schedule: Q01DX005 (ip), vehicle: saline) is reported as 101 % of control.

With `Cn1ccnc1Sc1ccccn1` the T/C [6] was 104 % of control, the T/C [7] was 107 % of control and the T/C [8] was 89 % of control.

With `CN(C)c1ccc(Cc2ccc(N(C)C)nc2)cn1` the T/C [1] was 109 % of control and the T/C [2] was 110 % of control.

`O=C(CCl)c1cccnc1C(=O)O` was tested, and the T/C (dose: 25.0 mg/kg/injection, schedule: Q01DX009 (ip), vehicle: saline sonified) was 100 % of control, the T/C (dose: 50.0 mg/kg/injection, schedule: Q01DX009 (ip), vehicle: saline sonified) was 100 % of control and the T/C (dose: 100.0 mg/kg/injection, schedule: Q01DX009 (ip), vehicle: saline sonified) was 90 % of control.

With `CC(=O)OC1CC(/C=C/C(=O)OC2=C(O)CCC2=O)=CN1` (stereo not given) the T/C (dose: 4.37 mg/kg/injection, schedule: Q01DX001 (ip), vehicle: Klucel (hydroxypropylcellulose) (HPC)) was 100 % of control, the T/C (dose: 8.75 mg/kg/injection, schedule: Q01DX001 (ip), vehicle: Klucel (hydroxypropylcellulose) (HPC)) was 99 % of control and the T/C (dose: 17.5 mg/kg/injection, schedule: Q01DX001 (ip), vehicle: Klucel (hydroxypropylcellulose) (HPC)) was 102 % of control. The T/C (dose: 35.0 mg/kg/injection, schedule: Q01DX001 (ip), vehicle: Klucel (hydroxypropylcellulose) (HPC)) was 105 % of control.

`COC(=O)c1nnn(-c2cc(Cl)ccc2Cl)c1N` was tested, and the T/C [11] was 91 % of control.

In the case of `C/C=C(\C)C(=O)N/N=C\C=C\c1ccccc1`, the T/C (dose: 25.0 mg/kg/injection, schedule: Q01DX005 (ip), vehicle: Klucel (hydroxypropylcellulose) (HPC)) is reported as 89 % of control, the T/C [12] is reported as 92 % of control and the T/C [13] is reported as 89 % of control.

For `CCC(/C=C/c1ccc(OC)cc1)=N/Nc1ccccc1`, the T/C (dose: 30.0 mg/kg/injection, schedule: Q01DX005 (ip), vehicle: other) was 109 % of control, the T/C (dose: 60.0 mg/kg/injection, schedule: Q01DX005 (ip), vehicle: other) was 100 % of control and the T/C (dose: 120.0 mg/kg/injection, schedule: Q01DX005 (ip), vehicle: other) was 103 % of control and 109 % of control. The T/C (dose: 240.0 mg/kg/injection, schedule: Q01DX005 (ip), vehicle: other) was 113 % of control.

In the case of `C=CCOc1cc2c(cc1C(C)c1ccc(OC)c(OC)c1)OCO2` (stereo not given), the T/C [1] is reported as 99 % of control, the T/C [2] is reported as 100 % of control and the T/C [3] is reported as 95 % of control.

In the case of `O=C1CCC(=O)C1`, the T/C [6] is reported as 100 % of control, the T/C [7] is reported as 93 % of control and the T/C [8] is reported as 105 % of control.

With `C1CCN(P2(N3CCCCC3)=NP(N3CCCCC3)(N3CCCCC3)=NP(N3CCCCC3)(N3CCCCC3)=NP(N3CCCCC3)(N3CCCCC3)=N2)CC1` the T/C [1] was 96 % of control and the T/C [2] was 88 % of control.

In the case of `CC(C)CC1SCC(=O)N1c1nncs1` (stereo not given), the T/C [11] is reported as 103 % of control, the T/C [14] is reported as 97 % of control and the T/C [15] is reported as 98 % of control.

`OCC1NCCC(O)C1OC1OC(CO)C(O)C(O)C1O` (stereo not given) was tested, and the T/C (dose: 6.88 mg/kg/injection, schedule: Q01DX005 (ip), vehicle: water) was 103 % of control, the T/C (dose: 13.75 mg/kg/injection, schedule: Q01DX005 (ip), vehicle: water) was 100 % of control and the T/C (dose: 27.5 mg/kg/injection, schedule: Q01DX005 (ip), vehicle: water) was 100 % of control. The T/C (dose: 55.0 mg/kg/injection, schedule: Q01DX005 (ip), vehicle: water) was 99 % of control.

In the case of `Nc1ccc(S(=O)(=O)Nc2ccccc2-c2nc(N)nc(N)n2)cc1`, the T/C [4] is reported as 98 % of control, the T/C [5] is reported as 97 % of control and the T/C [16] is reported as 94 % of control. The T/C (dose: 400.0 mg/kg/injection, schedule: Q01DX009 (ip), vehicle: saline with Tween-80) was 101 % of control.

`O=C1C2CC3OC3CC2C(=O)N1CCCCCCN1C(=O)C2CC3OC3CC2C1=O` (stereo not given) was tested, and the T/C [12] was 91 % of control, the T/C [13] was 90 % of control and the T/C [17] was 89 % of control.

`CCOC(=O)c1cc([N+](=O)[O-])c(C)n1C` was tested, and the T/C [4] was 98 % of control, the T/C [5] was 102 % of control and the T/C [16] was 96 % of control.

With `[Ni+2].[O-]/C(=N\N=C\c1ccccn1)c1ccccc1O.[O-]/C(=N\N=C\c1ccccn1)c1ccccc1O` the T/C (dose: 50.0 mg/kg/injection, schedule: Q04DX002 (ip), vehicle: saline with Tween-80) was 98 % of control, the T/C (dose: 100.0 mg/kg/injection, schedule: Q04DX002 (ip), vehicle: saline with Tween-80) was 101 % of control and the T/C (dose: 200.0 mg/kg/injection, schedule: Q04DX002 (ip), vehicle: saline with Tween-80) was 89 % of control.

For `O=C1NC(=O)C(CCO)(c2ccccc2)C(=O)N1`, the T/C [11] was 88 % of control, the T/C [14] was 105 % of control and the T/C [15] was 100 % of control.

With `Cc1csc([NH-])n1.Cc1csc([NH-])n1.[Cl][Pt+2][Cl]` the T/C (dose: 100.0 mg/kg/injection, schedule: Q01DX001 (sc), vehicle: olive oil, sesame oil, peanut oil) was 104 % of control, the T/C (dose: 200.0 mg/kg/injection, schedule: Q01DX001 (sc), vehicle: olive oil, sesame oil, peanut oil) was 107 % of control and the T/C (dose: 400.0 mg/kg/injection, schedule: Q01DX001 (sc), vehicle: olive oil, sesame oil, peanut oil) was 104 % of control.

For `Oc1ccc2c3c1OC1C(=NN=C4CCC5(O)C6Cc7ccc(O)c8c7C5(CCN6CC5CC5)C4O8)CCC4(O)C(C2)N(CC2CC2)CCC314` (stereo not given), the T/C [1] was 91 % of control, the T/C [2] was 98 % of control and the T/C [3] was 99 % of control.

For `NNC(=O)C(=O)Nc1ccc(F)cc1`, the T/C [4] was 96 % of control and the T/C [5] was 100 % of control.

In the case of `CN1c2ccc(C3N(C(=O)C(F)(F)F)C=CN3C(=O)C(F)(F)F)cc2Sc2cc(C3N(C(=O)C(F)(F)F)C=CN3C(=O)C(F)(F)F)ccc21`, the T/C [11] is reported as 91 % of control, the T/C [14] is reported as 89 % of control and the T/C [15] is reported as 91 % of control.

`CN(C)CCCN1c2ccccc2Oc2ccc(Cl)cc21` was tested, and the T/C [9] was 105 % of control and the T/C [10] was 106 % of control.

`Nc1nnn(N)n1` was tested, and the T/C (dose: 100.0 mg/kg/injection, schedule: Q04DX003 (ip), vehicle: saline) was 92 % of control and the T/C (dose: 200.0 mg/kg/injection, schedule: Q04DX003 (ip), vehicle: saline) was 100 % of control.

For `CC1C[N+]2(CNC(=O)c3ccccc3O)CC(C)O[B-]2(c2ccccc2)O1` (stereo not given), the T/C [12] was 103 % of control, the T/C [13] was 100 % of control and the T/C [17] was 103 % of control.
